Test results: patent publication US10391015B2, “Apparatus and method for restoring voluntary control of locomotion in neuromotor impairments” (ECOLE POLYTECHNIQUE FEDERALE DE LAUSANNE (EPFL), priority 2012, dated 2019)

Tests used:
left motor cortex = experiment: Inactivation of the motor cortex by muscimol microinjection in overground-trained SCI rats; type: in vivo, rat; details: overground-trained rats with T7/T10 staggered hemisections; intra-cortical microinjection into left motor cortex (800 nl, 4.5 mg/Kg); p<0.01; functionality of lumbosacral circuits uncompromised
Experimental: (§1) To ablate T8-T9 neurons, we infused NMDA (1% in dH2O) into 14 sites (depth 1 mm, total volume 3 μl) covering spinal levels T8-T9. Rats were tested 5 days post-lesion, and sacrificed on the following day. The ablation of neurons was verified post mortem on tissue sections stained with mouse anti-NeuN (1:500, Chemicon, USA) antibodies. To inactivate the motor cortex, we injected the GABA-agonist muscimol intra-cortically (800 nl, 4.5 mg/Kg). Five days prior to experiments, we stereotaxically implanted a catheter (OD: 0.61 mm, ID: 0.28 mm) into the left motor cortex at a depth of 1.5 mm. Proper catheter location was verified post mortem on tissue sections stained (Invitrogen, USA) for fluorescent Nissl visualization.
Contrary to primates, the rodent motor cortex is not essential to produce locomotion (G. Courtine et al., Can experiments in nonhuman primates expedite the translation of treatments for spinal cord injury in humans? Nature medicine 13, 561 (May, 2007)). […] First, we implanted stimulating epidural electrodes over the left motor cortex to verify that the reorganization of neuronal pathways re-established connectivity across the lesion. […] Second, we implanted a microwire array in the vicinity of CST neurons projecting to T8-T9 segments, and recorded neuronal modulations during voluntary locomotion in overground-trained rats (n=3). […]

T8-T9 neurons = experiment: Ablation of T8-T9 neurons by NMDA infusion in overground-trained SCI rats; type: in vivo, rat; details: overground-trained rats with T7/T10 staggered hemisections, NMDA 1% in dH2O into 14 sites, tested 5 days post-lesion, p<0.01, functionality of lumbosacral circuits uncompromised
Experimental: as §1
Anatomical examinations highlighted an extensive remodelling of supraspinal and intraspinal projections in rats that regained voluntary locomotion. We first conducted retrograde tract tracing from L1-L2 locomotor centers. We found a significant increase (p<0.01) in the number of labeled neurons in intermediate and ventral laminae of T8-T9 segments in both overground-trained and treadmill-trained rats compared to non-trained animals. Analysis of the activity-dependent marker cfos after continuous overground locomotion confirmed that the labeled neurons were active during walking. […]

Structure (SMILES): NCc1cc(=O)[nH]o1 [Muscimol, muscimol]
- effect on voluntary hindlimb locomotion (left motor cortex): immediately suppressed voluntary hindlimb locomotion

Structure (SMILES): CN[C@H](CC(=O)O)C(=O)O [NMDA, N-methyl-D-aspartic acid]
- effect on regained voluntary locomotion (T8-T9 neurons): abolished the regained voluntary locomotion
